Positions count from the first letter of the chain named. Read-outs that look alike come from different tables or passages of the source.
Key:
IRAK1 = IRAK1 (Homo sapiens, UniProt P51617); experiment: RBC HotSpot Kinase Assay, IRAK1; details: IRAK1 IC50
FLT3 D835H = molecular target: T1, FLT3 D835H (Homo sapiens, UniProt P36888, D835H); experiment: DiscoverX KINOMEscan competition binding, FLT3 D835H
T1 construct: purchased DiscoverX (KINOMEscan)
T1 sequence (P36888 27-993 D835H): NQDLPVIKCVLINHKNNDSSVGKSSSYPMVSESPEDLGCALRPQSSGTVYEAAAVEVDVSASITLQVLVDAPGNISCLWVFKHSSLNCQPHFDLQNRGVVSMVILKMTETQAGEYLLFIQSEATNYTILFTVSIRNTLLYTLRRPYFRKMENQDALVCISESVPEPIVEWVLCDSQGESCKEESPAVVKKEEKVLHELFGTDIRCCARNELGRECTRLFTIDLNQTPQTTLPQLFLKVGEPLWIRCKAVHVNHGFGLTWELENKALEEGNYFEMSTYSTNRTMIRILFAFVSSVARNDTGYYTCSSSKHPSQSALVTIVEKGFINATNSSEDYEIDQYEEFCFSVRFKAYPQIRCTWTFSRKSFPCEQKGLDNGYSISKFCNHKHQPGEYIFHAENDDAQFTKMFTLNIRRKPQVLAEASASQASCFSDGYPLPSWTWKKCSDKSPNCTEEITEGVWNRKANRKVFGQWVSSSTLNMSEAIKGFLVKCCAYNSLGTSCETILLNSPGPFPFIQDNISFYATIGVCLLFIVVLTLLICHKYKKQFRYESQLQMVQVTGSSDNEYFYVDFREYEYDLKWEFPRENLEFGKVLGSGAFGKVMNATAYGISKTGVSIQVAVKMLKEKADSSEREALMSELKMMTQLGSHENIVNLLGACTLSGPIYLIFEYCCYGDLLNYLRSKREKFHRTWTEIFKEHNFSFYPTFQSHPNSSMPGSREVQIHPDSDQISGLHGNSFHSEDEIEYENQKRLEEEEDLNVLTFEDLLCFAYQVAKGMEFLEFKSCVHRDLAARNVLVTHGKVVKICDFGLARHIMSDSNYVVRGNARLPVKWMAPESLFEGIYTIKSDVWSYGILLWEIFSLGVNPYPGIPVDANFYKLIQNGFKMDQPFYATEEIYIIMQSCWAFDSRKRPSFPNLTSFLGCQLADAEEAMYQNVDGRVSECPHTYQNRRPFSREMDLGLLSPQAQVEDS

IRAK4 = molecular target: T2, IRAK4 (Homo sapiens, UniProt Q9NWZ3); experiment: RBC HotSpot Kinase Assay, IRAK4; details: IRAK4 IC50
T2 sequence (Q9NWZ3 1-460): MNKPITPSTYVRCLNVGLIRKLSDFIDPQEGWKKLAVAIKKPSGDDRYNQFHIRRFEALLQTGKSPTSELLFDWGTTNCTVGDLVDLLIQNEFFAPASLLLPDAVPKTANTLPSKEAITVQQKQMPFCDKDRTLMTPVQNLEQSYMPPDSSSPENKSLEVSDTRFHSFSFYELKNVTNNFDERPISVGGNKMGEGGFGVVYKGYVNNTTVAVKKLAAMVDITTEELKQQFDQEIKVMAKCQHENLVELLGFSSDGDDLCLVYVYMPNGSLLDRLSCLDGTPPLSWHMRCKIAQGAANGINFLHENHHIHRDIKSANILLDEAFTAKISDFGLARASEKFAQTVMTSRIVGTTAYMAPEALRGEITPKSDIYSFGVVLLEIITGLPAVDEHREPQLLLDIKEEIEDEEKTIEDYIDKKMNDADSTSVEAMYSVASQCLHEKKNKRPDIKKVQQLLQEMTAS

FLT3 N841I = molecular target: T3, FLT3 N841I (Homo sapiens, UniProt P36888, N841I); experiment: DiscoverX KINOMEscan competition binding, FLT3 N841I
T3 construct: purchased DiscoverX (KINOMEscan)
T3 sequence (P36888 27-993 N841I): T1 sequence (P36888 27-993 D835H) with H809D, N815I

MOLM14(D835Y) cells = type: cell-based; details: MOLM14(D835Y) cells; for Excess HSA Score: 10 × 10
[1] = combination with (+)-BAY-1251152
[2] = combination with Eprenetapopt/APR-246
[3] = combination with Venetoclax (ABT-199)

Sequence of IRAK1 (P51617 whole entry): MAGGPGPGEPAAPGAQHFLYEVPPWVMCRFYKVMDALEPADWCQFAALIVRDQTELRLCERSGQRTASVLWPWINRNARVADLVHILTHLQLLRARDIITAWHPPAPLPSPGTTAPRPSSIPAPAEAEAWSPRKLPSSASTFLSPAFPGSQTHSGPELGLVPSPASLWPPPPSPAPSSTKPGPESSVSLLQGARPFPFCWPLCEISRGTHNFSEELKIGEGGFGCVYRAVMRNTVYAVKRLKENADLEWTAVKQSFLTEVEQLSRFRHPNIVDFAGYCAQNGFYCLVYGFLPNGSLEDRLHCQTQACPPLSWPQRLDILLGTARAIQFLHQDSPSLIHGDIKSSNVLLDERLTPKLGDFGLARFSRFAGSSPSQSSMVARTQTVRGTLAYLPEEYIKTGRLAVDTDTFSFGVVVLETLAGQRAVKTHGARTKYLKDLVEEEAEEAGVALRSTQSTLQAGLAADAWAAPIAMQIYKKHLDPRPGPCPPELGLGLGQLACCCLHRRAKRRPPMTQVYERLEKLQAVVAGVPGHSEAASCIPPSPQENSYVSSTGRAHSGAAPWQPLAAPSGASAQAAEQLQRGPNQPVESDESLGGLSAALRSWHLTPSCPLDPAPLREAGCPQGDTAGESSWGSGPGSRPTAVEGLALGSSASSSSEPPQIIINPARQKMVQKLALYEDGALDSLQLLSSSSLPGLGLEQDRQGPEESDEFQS

| SMILES | IC50 (IRAK1) | Kd (FLT3 D835H) | IC50 (IRAK4) | Kd (FLT3 N841I) | Excess HSA Score (MOLM14(D835Y) cells; [1]) | Excess HSA Score (MOLM14(D835Y) cells; combination with AMG-232) | Excess HSA Score (MOLM14(D835Y) cells; combination with AZD-5363) | Excess HSA Score (MOLM14(D835Y) cells; [2]) | Excess HSA Score (MOLM14(D835Y) cells; combination with Ivosidenib) | Excess HSA Score (MOLM14(D835Y) cells; combination with Lenalidomide) | Excess HSA Score (MOLM14(D835Y) cells; combination with Palbociclib) | Excess HSA Score (MOLM14(D835Y) cells; combination with Prednisolone) | Excess HSA Score (MOLM14(D835Y) cells; combination with SNDX-5613) | Excess HSA Score (MOLM14(D835Y) cells; combination with TNO-155) | Excess HSA Score (MOLM14(D835Y) cells; combination with Trametinib) | Excess HSA Score (MOLM14(D835Y) cells; combination with Ulixertinib) | Excess HSA Score (MOLM14(D835Y) cells; [3]) | Comments (MOLM14(D835Y) cells; combination with Lenalidomide) | Comments (MOLM14(D835Y) cells; [3]) | Comments (MOLM14(D835Y) cells; combination with SNDX-5613) |
| --- | --- | --- | --- | --- | --- | --- | --- | --- | --- | --- | --- | --- | --- | --- | --- | --- | --- | --- | --- | --- |
| F[C@H]1CCNC[C@@H]1Nc1cncc(-c2cnc3cc(OC4CC4)ccn23)n1 [Compound 12, 6-(7-cyclopropoxyimidazo[1,2-a]pyridin-3-yl)-N-((3S,4S)-4-fluoropiperidin-3-yl)pyrazin-2-amine] | 18 nM | 1.1 nM | 2 nM | 4.7 nM | −346.5 | −464.9 | −869.6 | 381.9 | −10.93 | 176.4 | −72.57 | 908.8 | −187.4 | −906.9 | −87.67 | 256.8 | −1232.2388 | Antagonistic | Synergistic |  |
| COc1cc2ncc(-c3ccnc(N[C@@H]4CCCNC4)n3)n2cc1C(C)(C)O [Compound 44, (R)-2-(7-methoxy-3-(2-(piperidin-3-ylamino)pyrimidin-4-yl)imidazo[1,2-a]pyridin-6-yl)propan-2-ol] | 1 nM | 0.28 nM | < 0.5 nM | 0.97 nM | −808.4 | −620.9 | −290.5 | 75.21 | 21.01 | 270.3924 | −370.2 | 409.4 | 3.1084 | −655.3 | −420 | −254.1 | −1120.4885 |  | Synergistic | Antagonistic |

From US20250154144A1 (CHILDREN'S HOSPITAL MEDICAL CENTER, priority 2021, published 2025)
